# In US9181303B2, “Treatment of bacterial infections with cyclic antimicrobial peptides” (N[…], priority 2005, dated 2015):
# “And” between values parts separate entries of the source, which are not always exact repeats. Equal values may be shown once.
# Experiments:
# C. neoformans = test: Broth dilution antifungal susceptibility testing of yeasts (M27-A), C. neoformans; assay type: cell-based, Cryptococcus neoformans
# Procedure: (§1) Broth Dilution Antifungal Susceptibility Testing
# (§2) The sensitivity of relevant fungal strains to the cyclized peptides was determined using Clinical Laboratory Standard Institute (CLSI; formerly NCCLS) Approved Standards. Fungal susceptibility was tested using “Reference Method for Broth Dilution Antifungal Susceptibility Testing of Filamentous Fungi; Approved Standard M38-P”, and yeast susceptibility was tested using “Reference Method for Broth Dilution Antifungal Susceptibility Testing of Yeasts; Approved Standard—Second Edition M27-A”.
# C. neoformans susceptibility to peptides 4 and 6-8 was tested using “Reference Method for Broth Dilution Antifungal Susceptibility Testing of Yeasts; Approved Standard—Second Edition M27-A”.
# T. interdigitale = test: Broth dilution antifungal susceptibility testing, T. interdigitale; assay type: cell-based, Trichophyton interdigitale; conditions: for Activity towards T. interdigitale: in words
# Procedure: as §1, §2
# T. interdigitale susceptibility to peptides 2-8 was tested. Peptides 2, 4 and 6 were active towards T. interdigitale.
# T. rubrum = test: Broth dilution antifungal susceptibility testing (CLSI M38-P), T. rubrum; assay type: cell-based, Trichophyton rubrum; conditions: for MIC versus T. rubrum: T. rubrum cultures
# Procedure: as §1, §2
# T. rubrum susceptibility to peptides 1-8 was tested.
# E. coli = test: Broth dilution antibacterial susceptibility testing (CLSI M7-A7), E. coli; assay type: cell-based; conditions: for MIC versus E. coli: growth over 16 hours at 37° C.
# Procedure: (§3) Broth Dilution Antibacterial Susceptibility Testing
# (§4) The sensitivity of relevant bacterial strains to the cyclized peptides was determined using Clinical Laboratory Standard Institute (CLSI; formerly NCCLS) Approved Standards. Bacterial susceptibility was tested using “Methods for Dilution Antimicrobial Susceptibility Tests for Bacteria That Grow […]; Approved Standard—Seventh Edition M7-A7”
# (§5) Cultures of E. coli and Staphylococcus aureus were exposed to Peptide 1 and the MIC after growth over the following 16 hours at 37° C. was 1 mM for both organisms (Table 2).
# S. aureus = test: Broth dilution antibacterial susceptibility testing (CLSI M7-A7), S. aureus; assay type: cell-based, Staphylococcus aureus
# Procedure: as §3, §4, §5
# P. acnes = test: Broth dilution antibacterial susceptibility testing, P. acnes; assay type: cell-based; conditions: P. acnes DSMZ1897
# Procedure: as §3, §4
# C. albicans = test: Broth dilution antifungal susceptibility testing of yeasts, C. albicans; assay type: cell-based
# Procedure: as §1, §2
# Fusarium oxysporum = test: Broth dilution antifungal susceptibility testing, Fusarium oxysporum; assay type: cell-based; conditions: Fusarium oxysporum NCPF2722
# Procedure: as §1, §2
# S. epidermidis = test: Broth dilution antibacterial susceptibility testing, S. epidermidis; assay type: cell-based, Staphylococcus epidermidis; conditions: S. epidermidis ATCC12228
# Procedure: as §3, §4
# C. krusei = test: Broth dilution antifungal susceptibility testing of yeasts, C. krusei; assay type: cell-based
# Procedure: as §1, §2
# M. furfur = test: Broth dilution antifungal susceptibility testing, M. furfur; assay type: cell-based, Malassezia furfur; conditions: M. furfur DSM6170
# Procedure: as §1, §2
# C. difficile = test: Broth dilution antibacterial susceptibility testing, C. difficile; assay type: cell-based, Clostridium difficile; conditions: C. difficile NCTC11209
# Procedure: as §3, §4
# Fusarium spp = test: Broth dilution antifungal susceptibility testing, Fusarium spp; assay type: cell-based
# Procedure: as §1, §2
# A. niger = test: Broth dilution antifungal susceptibility testing, A. niger; assay type: cell-based; conditions: A. niger NCPF2022
# Procedure: as §1, §2
# S. brevicaulis = test: Broth dilution antifungal susceptibility testing, S. brevicaulis; assay type: cell-based, Scopulariopsis brevicaulis
# Procedure: as §1, §2
# Ps. aeruginosa = test: Broth dilution antibacterial susceptibility testing, Ps. aeruginosa; assay type: cell-based
# Procedure: as §3, §4
# B. cepacia = test: Broth dilution antibacterial susceptibility testing, B. cepacia; assay type: cell-based, Burkholderia cepacia; conditions: B. cepacia ATCC25609
# Procedure: as §3, §4
# C. parapsilosis = test: Broth dilution antifungal susceptibility testing of yeasts, C. parapsilosis; assay type: cell-based
# Procedure: as §1, §2
# A. terreus = test: Broth dilution antifungal susceptibility testing, A. terreus; assay type: cell-based; conditions: A. terreus NCPF2729
# Procedure: as §1, §2
# T. mentagrophytes = test: Broth dilution antifungal susceptibility testing, T. mentagrophytes; assay type: cell-based, Trichophyton mentagrophytes
# Procedure: as §1, §2
substance,measurement,setting,value
Cyclic-DK-DK-DK-DK-DK-DK-DK-G [Peptide 8],MIC versus C. neoformans,C. neoformans,500 µM
same,MIC versus T. interdigitale,T. interdigitale,>4000 µM
same,MIC versus T. rubrum,T. rubrum,> 4000 µM
Cyclic-DO-DO-DO-DO-DO-DO-DO-G [Peptide 7],MIC versus C. neoformans,C. neoformans,2000 µM
same,MIC versus T. interdigitale,T. interdigitale,>4000 µM
same,MIC versus T. rubrum,T. rubrum,>4000 µM
Cyclic-DR-DR-DR-DR-DR-DR-DR-G [Peptide 6],MIC versus C. neoformans,C. neoformans,500 µM
same,MIC versus T. interdigitale,T. interdigitale,250 µM
same,Activity towards T. interdigitale,T. interdigitale,active
same,MIC versus T. rubrum,T. rubrum,1000 µM
Cyclic-K-K-K-K-K-K-K [Peptide 1],MIC versus E. coli,E. coli,1000 µM
same,MIC versus T. rubrum,T. rubrum,100 µM
same,MIC versus S. aureus,S. aureus; growth over 16 hours at 37° C.,1000 µM
Cyclic-K-K-K-K-K-K-K-G [Peptide 3],MIC versus T. interdigitale,T. interdigitale,>4000 µM
same,MIC versus T. rubrum,T. rubrum,4000 µM
Cyclic-O-O-O-O-O-O-O-G [Peptide 5],MIC versus T. interdigitale,T. interdigitale,>4000 µM
same,MIC versus T. rubrum,T. rubrum,4000 µM
Cyclic-R-R-R-R-R-R-R [Peptide 2],MIC,P. acnes,125 µM
same,MIC,C. albicans; C. albicans AM2003-020,>2000 µM
same,MIC,C. albicans; C. albicans ATCC24433,>2000 µM
same,MIC,C. albicans; C. albicans ATCC90028,>2000 µM
same,MIC,C. albicans; C. albicans IHEM3742,>2000 µM
same,MIC,C. albicans; C. albicans NCTC3179,>2000 µM
same,MIC,C. albicans; C. albicans s20122.073,>2000 µM
same,MIC,E. coli; E. coli NCTC12900,100 µM
same,MIC,"E. coli; E. coli, No strain designation",100 µM
same,MIC versus E. coli,E. coli,100 µM
same,MIC,Fusarium oxysporum,>2000 µM
same,MIC,S. epidermidis,25 µM
same,MIC,C. krusei; C. krusei ATCC6258,125 µM
same,MIC,C. krusei; C. krusei NCPT3953,128 to 256 µM
same,MIC,M. furfur,0.031 mM
same,MIC versus T. interdigitale,T. interdigitale,<125 µM
same,MIC,T. interdigitale; T. interdigitale NCPF335,<125 µM
same,Activity towards T. interdigitale,T. interdigitale,active
same,MIC,C. difficile,>2000 µM
same,MIC,Fusarium spp; Fusarium spp DM2006 294,>2000 µM
same,MIC,Fusarium spp; Fusarium spp DM2006 495,>2000 µM
same,MIC,Fusarium spp; Fusarium spp DM2006 1026,>2000 µM
same,MIC,A. niger,500 µM
same,MIC,T. rubrum; T. rubrum 7 Clinical Isolates,500 to 1000 µM
same,MIC,T. rubrum; T. rubrum NCPF118,250 µM
same,MIC versus T. rubrum,T. rubrum,250 µM and 200 µM
same,MIC,S. brevicaulis; S. brevicaulis DM2006 1025,500 µM
same,MIC,S. brevicaulis; S. brevicaulis NCPF2177,500 µM
same,MIC,"Ps. aeruginosa; Ps. aeruginosa ATCC27853 (first entry, r42)",>1900 µM
same,MIC,"Ps. aeruginosa; Ps. aeruginosa ATCC27853 (second entry, r44)",>2000 µM
same,MIC,Ps. aeruginosa; Ps. aeruginosa DSM50071,>2000 µM
same,MIC,B. cepacia,>1900 µM
same,MIC,C. parapsilosis; C. parapsilosis ATCC22019,250 µM
same,MIC,C. parapsilosis; C. parapsilosis ATCC90018,1000 µM
same,MIC,S. aureus; S. aureus 16 Clinical Isolates,>3800 µM
same,MIC,"S. aureus; S. aureus ANS46, MRSA",950 µM
same,MIC,S. aureus; S. aureus ATCC12598,950 µM
same,MIC,S. aureus; S. aureus ATCC25923,>100 µM
same,MIC,"S. aureus; S. aureus Col, MRSA",950 µM
same,MIC,"S. aureus; S. aureus MW2, MRSA",950 µM
same,MIC,"S. aureus; S. aureus N315, MRSA",950 µM
same,MIC,"S. aureus; S. aureus NCTC6571, MSSA",>1900 µM
same,MIC,S. aureus; S. aureus NCTC8325,>1900 µM
same,MIC,"S. aureus; S. aureus NCTC10442, MRSA",250 µM
same,MIC,S. aureus; S. aureus NCTC10788,>1900 µM
same,MIC,"S. aureus; S. aureus, No strain designation",250 µM
same,MIC,A. terreus,>2000 µM
same,MIC,T. mentagrophytes; T. mentagrophytes DM2006 978,500 µM
same,MIC,T. mentagrophytes; T. mentagrophytes DM2006 1023,500 µM
Cyclic-R-R-R-R-R-R-R-G [Peptide 4],MIC versus C. neoformans,C. neoformans,1000 µM
same,MIC versus T. interdigitale,T. interdigitale,500 µM
same,Activity towards T. interdigitale,T. interdigitale,active
same,MIC versus T. rubrum,T. rubrum,2000 µM
